In patent EP4446411A1, “VARIANT SUBTILISIN PROTEASES” (PEACCEL, priority 2023, dated 2024):
*1 amine or outer side, *2 acyl side, *3 side chain or, on linkers, in order; H or OH if unused. Where a SMILES comes first, the peptide text is derived from it. The star is where a group is joined. pNA = O=[N+]([O-])c1ccc(N*)cc1; Suc = O=C(CCC(=O)[*:2])[*:1]

Assays:
Assay in all cases: Kinetic parameters by release of p-nitroaniline from suc-AAPFpNA (absorbance at 410 nm, Michaelis-Menten fit)
[1] = biological target: T1, Bacillus lentus subtilisin variant N74D/S101A/V102W (control variant of WO1995010591), SEQ ID NO: 3 (Lederbergia lenta, UniProt P29600, N74D/S101A/V102W); format: biochemical
T1 construct: made in house; host or cells: protease deficient Bacillus subtilis 168
T1 sequence (P29600 1-269 N74D/S101A/V102W): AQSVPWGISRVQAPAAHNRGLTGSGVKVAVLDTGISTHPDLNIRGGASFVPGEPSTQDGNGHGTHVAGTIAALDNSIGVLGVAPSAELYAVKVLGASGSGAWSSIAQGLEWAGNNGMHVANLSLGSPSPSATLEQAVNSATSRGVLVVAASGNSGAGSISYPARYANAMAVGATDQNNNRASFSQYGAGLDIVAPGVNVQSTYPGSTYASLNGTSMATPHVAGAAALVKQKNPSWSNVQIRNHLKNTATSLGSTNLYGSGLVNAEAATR
Method: (§1) Three selected mutants as well as the wild-type and one mutant of the patent application WO1995010591 A1 data set were cloned in a Bacillus vector behind a constitutive APRE promotor and expressed in a protease deficient Bacillus subtilis 168 strain. The transformed strains were grown for 24 hours at 37°C in shake flasks. The subtilisin variants were purified by Ion exchange chromatography followed by […] with a 0-200 mM salt gradient. The activity of the protease variants was determined by the release of the chromophore para-nitroanilide from succinyl-alanine-alanine-proline-phenylalanine-para-nitroanilide (suc-AAPFpNA). The release of the pNA causes an increase in the absorbance at 410 nm, the temporal progression of which is used as a measure of the activity of the enzymes.
(§2) The kinetic parameters kcat and Km of the variants were measured using basically the method described in Bonneau, P. R., Graycar, T. P., Estell, D. A., & Jones, J. B. (1991). Alteration of the specificity of subtilisin BPN'by site-directed mutagenesis in its S1 and S1'binding sites. Journal of the American Chemical Society, 113(3), 1026-1030. A small aliquot of purified subtilisin variant was added to a 96 microtiterplate well containing succinyl-L-Ala-L-Ala-L-Pro-L-Phe-p-nitroanilide (SEQ ID NO: 1) dissolved in 0.1M Tris-HCL, pH 8.6. The reaction progress was measured spectrophotometrically at 25°C by monitoring the absorbance of p-nitroaniline at 410nm. The corresponding experimental values were fit to the Michaelis-Menten equation by a regression algorithm. The kcat/KM ratio was obtained by dividing the resulting values. […] Table 2: kinetic parameters kcat and Km of the variants at pH 8.6
(§3) The kinetic parameters kcat and Km of the variants were also measured using basically the method described in Bonneau, P. R., Graycar, T. P., Estell, D. A., & Jones, J. B. (1991). Alteration of the specificity of subtilisin BPN'by site-directed mutagenesis in its S1 and S1'binding sites. Journal of the American Chemical Society, 113(3), 1026-1030. A small aliquot of purified subtilisin variant was added to a microtiterplate containing suc-AAPFpNA (SEQ ID NO:1) dissolved in 0.1M glycine pH10. The reaction progress was measured spectrophotometrically by monitoring the absorbance of p-nitroaniline at 410nm. The corresponding experimental values were fit to the Michaelis-Menten equation by a regression algorithm. The kcat/Km ratio was obtained by dividing the resulting values. […] Kcat kcat/km are indicated as % compared to the wild-type (100%). Table 3: kinetic parameters kcat and Km of the variants at pH 10

[2] = biological target: T2, Bacillus lentus subtilisin variant N74D/S97D/S126G/P204I/T254P/S259N, SEQ ID NO: 6 (Lederbergia lenta, UniProt P29600, N74D/P204I/S126G/S259N/S97D/T254P); format: biochemical
T2 construct: made in house; host or cells: protease deficient Bacillus subtilis 168
T2 sequence (P29600 1-269 N74D/S97D/S126G/P204I/T254P/S259N): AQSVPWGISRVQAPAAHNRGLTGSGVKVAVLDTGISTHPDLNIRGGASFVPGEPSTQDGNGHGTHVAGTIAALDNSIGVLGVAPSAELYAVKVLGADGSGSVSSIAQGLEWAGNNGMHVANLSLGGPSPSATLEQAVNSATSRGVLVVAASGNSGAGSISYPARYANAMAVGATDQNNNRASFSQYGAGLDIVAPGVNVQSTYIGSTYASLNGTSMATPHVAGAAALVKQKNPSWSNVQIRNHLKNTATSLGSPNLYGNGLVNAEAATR
Method: as §1, §2, §3

[3] = biological target: T3, Bacillus lentus subtilisin variant N74D/S99G/V102W/S126G/D191E/N198G/N212S/T254P, SEQ ID NO: 4 (Lederbergia lenta, UniProt P29600, D191E/N198G/N212S/N74D/S126G/S99G/T254P/V102W); format: biochemical
T3 construct: made in house; host or cells: protease deficient Bacillus subtilis 168
T3 sequence (P29600 1-269 N74D/S99G/V102W/S126G/D191E/N198G/N212S/T254P): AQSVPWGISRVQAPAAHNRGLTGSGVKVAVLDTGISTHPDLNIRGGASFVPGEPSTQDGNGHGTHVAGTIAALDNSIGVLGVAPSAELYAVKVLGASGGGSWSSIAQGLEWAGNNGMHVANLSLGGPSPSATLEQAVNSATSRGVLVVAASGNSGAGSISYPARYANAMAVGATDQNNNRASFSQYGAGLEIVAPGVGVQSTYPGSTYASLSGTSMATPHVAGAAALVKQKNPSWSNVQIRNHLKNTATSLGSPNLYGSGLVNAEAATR
Method: as §1, §2, §3

[4] = biological target: T4, Bacillus lentus subtilisin variant N74D/S99G/V102W/S126G/N198A/N212S/T254P, SEQ ID NO: 5 (Lederbergia lenta, UniProt P29600, N198A/N212S/N74D/S126G/S99G/T254P/V102W); format: biochemical
T4 construct: made in house; host or cells: protease deficient Bacillus subtilis 168
T4 sequence (P29600 1-269 N74D/S99G/V102W/S126G/N198A/N212S/T254P): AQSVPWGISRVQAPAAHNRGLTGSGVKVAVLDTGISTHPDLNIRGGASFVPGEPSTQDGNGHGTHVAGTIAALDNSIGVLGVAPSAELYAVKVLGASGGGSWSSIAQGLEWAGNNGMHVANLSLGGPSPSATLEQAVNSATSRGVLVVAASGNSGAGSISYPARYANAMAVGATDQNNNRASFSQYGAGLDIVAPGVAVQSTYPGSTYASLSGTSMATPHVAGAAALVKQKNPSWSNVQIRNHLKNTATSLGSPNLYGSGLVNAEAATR
Method: as §1, §2, §3

[5] = biological target: T5, wild-type subtilisin of Bacillus lentus (GG36), WT, SEQ ID NO: 2 (Lederbergia lenta, UniProt P29600); format: biochemical
T5 construct: made in house; host or cells: protease deficient Bacillus subtilis 168
T5 sequence (P29600 1-269): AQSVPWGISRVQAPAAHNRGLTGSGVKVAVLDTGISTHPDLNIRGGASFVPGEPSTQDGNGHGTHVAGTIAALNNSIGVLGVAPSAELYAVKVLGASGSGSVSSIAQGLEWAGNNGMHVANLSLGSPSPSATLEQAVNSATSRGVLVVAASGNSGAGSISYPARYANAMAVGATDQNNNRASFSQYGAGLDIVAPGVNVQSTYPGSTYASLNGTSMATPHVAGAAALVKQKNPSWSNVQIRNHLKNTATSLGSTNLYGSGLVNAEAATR
Method: as §1, §2, §3

[6] = substrate: C[C@H](NC(=O)CCC(=O)O)C(=O)N[C@@H](C)C(=O)N1CCC[C@H]1C(=O)N[C@@H](Cc1ccccc1)C(=O)Nc1ccc([N+](=O)[O-])cc1; format: biochemical, Bacillus lentus
Method: as §1, §2, §3

[7] = other: 0.1M Tris-HCL, pH 8.6, 25°C, pH 8.6, 25.0 °C
[8] = other: 0.1M glycine pH10, pH 10.0

C[C@H](NC(=O)CCC(=O)O)C(=O)N[C@@H](C)C(=O)N1CCC[C@H]1C(=O)N[C@@H](Cc1ccccc1)C(=O)Nc1ccc([N+](=O)[O-])cc1 [succinyl-L-Ala-L-Ala-L-Pro-L-Phe-p-nitroanilide] (Suc-AAPF-pNA)
kcat pH 8.6 ([1]; 0.1M Tris-HCL, pH 8.6, 25°C): 638 % of wild-type
kcat/Km pH 8.6 ([1]; 0.1M Tris-HCL, pH 8.6, 25°C): 1392 % of wild-type
kcat pH 10 ([1]; 0.1M glycine pH10): 554 %half-life of wild-type
kcat/Km pH10 ([1]; 0.1M glycine pH10): 2263 % wild-type
kcat pH 8.6 ([2]; 0.1M Tris-HCL, pH 8.6, 25°C): 55 % of wild-type
kcat/Km pH 8.6 ([2]; 0.1M Tris-HCL, pH 8.6, 25°C): 51 % of wild-type
kcat pH 10 ([2]; 0.1M glycine pH10): 37 %half-life of wild-type
kcat/Km pH10 ([2]; 0.1M glycine pH10): 97 % wild-type
kcat pH 8.6 ([3]; 0.1M Tris-HCL, pH 8.6, 25°C): 579 % of wild-type
kcat/Km pH 8.6 ([3]; 0.1M Tris-HCL, pH 8.6, 25°C): 3326 % of wild-type
kcat pH 10 ([3]; 0.1M glycine pH10): 719 %half-life of wild-type
kcat/Km pH10 ([3]; 0.1M glycine pH10): 5100 % wild-type
kcat pH 8.6 ([4]; 0.1M Tris-HCL, pH 8.6, 25°C): 503 % of wild-type
kcat/Km pH 8.6 ([4]; 0.1M Tris-HCL, pH 8.6, 25°C): 6362 % of wild-type
kcat pH 10 ([4]; 0.1M glycine pH10): 723 %half-life of wild-type
kcat/Km pH10 ([4]; 0.1M glycine pH10): 10827 % wild-type
kcat pH 8.6 ([5]; 0.1M Tris-HCL, pH 8.6, 25°C): 100 % of wild-type
kcat/Km pH 8.6 ([5]; 0.1M Tris-HCL, pH 8.6, 25°C): 100 % of wild-type
kcat pH 10 ([5]; 0.1M glycine pH10): 100 %half-life of wild-type
kcat/Km pH10 ([5]; 0.1M glycine pH10): 100 % wild-type

B1: wild-type subtilisin of Bacillus lentus (GG36), WT, SEQ ID NO: 2 (Lederbergia lenta) (protein)
chain: AQSVPWGISRVQAPAAHNRGLTGSGVKVAVLDTGISTHPDLNIRGGASFVPGEPSTQDGNGHGTHVAGTIAALNNSIGVLGVAPSAELYAVKVLGASGSGSVSSIAQGLEWAGNNGMHVANLSLGSPSPSATLEQAVNSATSRGVLVVAASGNSGAGSISYPARYANAMAVGATDQNNNRASFSQYGAGLDIVAPGVNVQSTYPGSTYASLNGTSMATPHVAGAAALVKQKNPSWSNVQIRNHLKNTATSLGSTNLYGSGLVNAEAATR
notes: made in house; host or cells: protease deficient Bacillus subtilis 168
Km [6, 7]: 630 µM
Km [6, 8]: 1340 µM

B2: Bacillus lentus subtilisin variant N74D/S97D/S126G/P204I/T254P/S259N, SEQ ID NO: 6 (Lederbergia lenta; N74D/P204I/S126G/S259N/S97D/T254P) (protein)
chain: AQSVPWGISRVQAPAAHNRGLTGSGVKVAVLDTGISTHPDLNIRGGASFVPGEPSTQDGNGHGTHVAGTIAALDNSIGVLGVAPSAELYAVKVLGADGSGSVSSIAQGLEWAGNNGMHVANLSLGGPSPSATLEQAVNSATSRGVLVVAASGNSGAGSISYPARYANAMAVGATDQNNNRASFSQYGAGLDIVAPGVNVQSTYIGSTYASLNGTSMATPHVAGAAALVKQKNPSWSNVQIRNHLKNTATSLGSPNLYGNGLVNAEAATR
notes: as for B1
Km [6, 7]: 660 µM
Km [6, 8]: 520 µM

B3: Bacillus lentus subtilisin variant N74D/S101A/V102W (control variant of WO1995010591), SEQ ID NO: 3 (Lederbergia lenta; N74D/S101A/V102W) (protein)
chain: AQSVPWGISRVQAPAAHNRGLTGSGVKVAVLDTGISTHPDLNIRGGASFVPGEPSTQDGNGHGTHVAGTIAALDNSIGVLGVAPSAELYAVKVLGASGSGAWSSIAQGLEWAGNNGMHVANLSLGSPSPSATLEQAVNSATSRGVLVVAASGNSGAGSISYPARYANAMAVGATDQNNNRASFSQYGAGLDIVAPGVNVQSTYPGSTYASLNGTSMATPHVAGAAALVKQKNPSWSNVQIRNHLKNTATSLGSTNLYGSGLVNAEAATR
notes: as for B1
Km [6, 7]: 290 µM
Km [6, 8]: 330 µM

B4: Bacillus lentus subtilisin variant N74D/S99G/V102W/S126G/N198A/N212S/T254P, SEQ ID NO: 5 (Lederbergia lenta; N198A/N212S/N74D/S126G/S99G/T254P/V102W) (protein)
chain: AQSVPWGISRVQAPAAHNRGLTGSGVKVAVLDTGISTHPDLNIRGGASFVPGEPSTQDGNGHGTHVAGTIAALDNSIGVLGVAPSAELYAVKVLGASGGGSWSSIAQGLEWAGNNGMHVANLSLGGPSPSATLEQAVNSATSRGVLVVAASGNSGAGSISYPARYANAMAVGATDQNNNRASFSQYGAGLDIVAPGVAVQSTYPGSTYASLSGTSMATPHVAGAAALVKQKNPSWSNVQIRNHLKNTATSLGSPNLYGSGLVNAEAATR
notes: as for B1
Km [6, 7]: 50 µM
Km [6, 8]: 90 µM

B5: Bacillus lentus subtilisin variant N74D/S99G/V102W/S126G/D191E/N198G/N212S/T254P, SEQ ID NO: 4 (Lederbergia lenta; … (protein)
chain: AQSVPWGISRVQAPAAHNRGLTGSGVKVAVLDTGISTHPDLNIRGGASFVPGEPSTQDGNGHGTHVAGTIAALDNSIGVLGVAPSAELYAVKVLGASGGGSWSSIAQGLEWAGNNGMHVANLSLGGPSPSATLEQAVNSATSRGVLVVAASGNSGAGSISYPARYANAMAVGATDQNNNRASFSQYGAGLEIVAPGVGVQSTYPGSTYASLSGTSMATPHVAGAAALVKQKNPSWSNVQIRNHLKNTATSLGSPNLYGSGLVNAEAATR
notes: as for B1
Km [6, 7]: 110 µM
Km [6, 8]: 190 µM
